Results from patent US10105365B2, “Solid antiviral dosage forms” (AbbVie Inc., priority 2014, dated 2018).
Like-named read-outs stand apart in the source and are kept apart here.

Key:
[1] = Sink Conditions dissolution testing of Formulation C5-12; format: physicochemical; details: N = 6
Procedure: The release profiles of Formulation C5-12 of Example 1 were evaluated in a Sink Conditions dissolution study. The study was conducted in 900 mL of dissolution medium using a standard USP dissolution Apparatus 2 (paddle) operating at 100 RPM at 37±0.5° C. The dissolution medium was a 0.05 M sodium phosphate buffer pH 6.8 with 15 mM cTAB as a surfactant.

[2] = Human pharmacokinetic study, Example 4 Arm II (single dose, crossover); format: in vivo; details: human, in vivo
Procedure: Formulation C5-12 and a second formulation were tested in Arm II of the study. Adult male and female subjects (N=30 for combined Arm I and Arm II studies) in general good health were selected to participate in the study according to the selection criteria. Subjects meeting the selection criteria were randomly assigned to one of the Regimen sequences as shown below in Table 4-A.
Study drug was administered as provided below in Table 4-B.
Each study regimen was taken orally with approximately 240 mL of water approximately 30 minutes after the start of standardized breakfast. Study regimens were administered orally in the morning on Study Day 1 of each period. For Regimen A the evening dose of the Single Tablet was taken orally with approximately 240 mL of water approximately 30 minutes after the start of the evening snack. Serial blood samples for pharmacokinetic analysis were collected 72 hours after dosing in each period.
The data presented in Tables 4-C through 4-G are preliminary data and are subject to database lock and final data verification.

[3] = Human pharmacokinetic study, Example 4 Arm III (14-day multiple dose, steady state); format: in vivo
[4] = Human pharmacokinetic study, Example 5 Arm I (single dose, replicated crossover); format: in vivo; details: single dose, non-fasting
Procedure: (§1) A Phase 1, non-fasting, open-label, two-arm, four-period, randomized, crossover study was conducted to compare and characterize the pharmacokinetics of (i) Triple Tablet when co-administered with Single Tablet, and (ii) Formulation C5-12 as discussed below. Part 1 was a single dose, two-treatment, randomized, four period, two sequence replicated crossover study with 88 subjects. Doses in the four periods were separated by at least 10 days. Part 2 was a multiple-dose, two-treatment, two period, randomized crossover study with 66 subjects. Dosing in each period was 14 days and doses in the two periods were separated by at least 10 days.
(§2) Adult male and female subjects in general good health were selected to participate in the study according to the selection criteria. Subjects meeting the selection criteria were randomly assigned to one of the sequences of Regimens A and B (four sequences for Arm I and two sequences for Arm II) as shown below in Table 5-A.
(§3) Study drug was administered as provided below in Table 5-B.
(§4) Each study regimen was taken orally with approximately 240 mL of water approximately 30 minutes after the start of standardized breakfast. Study regimens were administered orally in the morning on Study Day 1 of each period. Serial blood samples for pharmacokinetic analysis were collected 72 hours after dosing in each period.
Tables 5-C, 5-D, 5-E, and 5-F below report the Arm I pharmacokinetic data for Formulation C5-12 (separately reported for each of Compounds 1, 2, 3, and 4). Table 5-G presents the results of a relative bioavailability and 90% confidence interval analysis of the pharmacokinetic data for Formulation C5-12 relative to the reference regimen. The data presented in Tables 5-C through 5-G are preliminary data and are subject to database lock and final data verification by the statistician.

[5] = Human pharmacokinetic study, Example 5 Arm II (multiple dose, crossover); format: in vivo; details: in vivo
Procedure: as §1, §2, §3, §4

[6] = Solubility (general statement); format: physicochemical; details: aqueous
[7] = Formulation C5-12, Day 14 versus Day 1
[8] = human, in vivo, oral, 3 Formulation C5-12 tablets daily, three Formulation C5-12 tablets daily for 14 days, non-fasting, Day 14, N = 14
[9] = three Formulation C5-12 tablets daily for 14 days, non-fasting, Day 1, N = 14
[10] = Regimen B (reference regimen): two Triple Tablets + one Single Tablet morning, one Single Tablet evening, N = 171

COC(=O)N[C@H](C(=O)N1CCC[C@H]1C(=O)Nc1ccc([C@@H]2CC[C@@H](c3ccc(NC(=O)[C@@H]4CCCN4C(=O)[C@@H](NC(=O)OC)C(C)C)cc3)N2c2ccc(C(C)(C)C)cc2)cc1)C(C)C [Compound 2]
% Released ([1]; 1 hour, 900 mL 0.05 M sodium phosphate buffer pH 6.8, 15 mM cTAB, USP Apparatus 2, 100 RPM, 37 °C): 55% | % Released ([1]; 4 hours, pH 6.8 buffer, 15 mM cTAB): 98% | % Released ([1]; 6 hours, pH 6.8 buffer, 15 mM cTAB): 99% | % Released ([1]; 8 hours, pH 6.8 buffer, 15 mM cTAB): 103% | % Released ([1]; 12 hours, pH 6.8 buffer, 15 mM cTAB): 102% | % Released ([1]; 16 hours, pH 6.8 buffer, 15 mM cTAB): 102% | AUCt, geometric mean ([2]; both): 1510 ng·h/mL | AUC∞, geometric mean ([2]; both): 1670 ng·h/mL | Cmax, geometric mean ([2]; both): 117 ng/mL | Tmax ([2]; both): 5.2 h | t1/2 ([2]; both): 23.2 h | C24, arithmetic mean, % CV ([2]; both, 24 h): (19.4, 29) ng/mL | C24, geometric mean ([2]; both, 24 h): 18.7 ng/mL | AUCt, arithmetic mean, % CV [2]: (1560, 25) ng · h/mL | AUC∞, arithmetic mean, % CV [2]: (1740, 29) ng · h/mL | Cmax, arithmetic mean, % CV [2]: (122, 31) ng/mL | Relative bioavailability, AUCinf, point estimate [2]: 1.022 | Relative bioavailability, Cmax, point estimate [2]: 1.038 | AUC24, RATIO [3, 7]: 1.34 | C24, RATIO [3, 7]: 1.72 | Cmax, RATIO [3, 7]: 1.10 | Tmax ([3]; human, in vivo, oral, 3 Formulation C5-12 tablets daily, three Formulation C5-12 tablets daily for 14 days, non-fasting, Day 1, N = 14): 5.5 h | concentration at 24 h ([3]; human, in vivo, oral, 3 Formulation C5-12 tablets daily, three Formulation C5-12 tablets daily for 14 days, non-fasting, Day 1, N = 14, read-out: C24, geometric mean): 23.4 ng/mL | Tmax [3, 8]: 5.6 h | half-life [3, 8]: 29.8 h | AUC ([3]; human, in vivo, oral, 3 Formulation C5-12 tablets daily, three Formulation C5-12 tablets daily for 14 days, non-fasting, Day 14, N = 14, read-out: AUC24, geometric mean): 1720 ng·h/mL | concentration at 24 h ([3]; human, in vivo, oral, 3 Formulation C5-12 tablets daily, three Formulation C5-12 tablets daily for 14 days, non-fasting, Day 14, N = 14, read-out: C24, geometric mean): 40.2 ng/mL | Cmax ([3]; human, in vivo, oral, 3 Formulation C5-12 tablets daily, three Formulation C5-12 tablets daily for 14 days, non-fasting, Day 14, N = 14, read-out: Cmax, geometric mean): 135 ng/mL | AUC24, geometric mean [3, 9]: 1280 ng·h/mL | Cmax, geometric mean [3, 9]: 123 ng/mL | β ([3]; three Formulation C5-12 tablets daily for 14 days, non-fasting, Day 14, N = 14): 0.023 h⁻¹ | half-life ([4]; both sexes, human, blood, oral, 3 film-coated Formulation C5-12 tablets, Regimen A (C5-12): three film-coated Formulation C5-12 tablets, N = 172): 37.9 h | AUC(0-t) ([4]; both sexes, human, blood, oral, 3 film-coated Formulation C5-12 tablets, Regimen A (C5-12): three film-coated Formulation C5-12 tablets, N = 172, read-out: AUCt, geometric mean): 1660 ng·h/mL | AUC(0-inf) ([4]; both sexes, human, blood, oral, 3 film-coated Formulation C5-12 tablets, Regimen A (C5-12): three film-coated Formulation C5-12 tablets, N = 172, read-out: AUC∞, geometric mean): 1800 ng·h/mL | Tmax ([4]; both sexes, human, blood, oral, 3 film-coated Formulation C5-12 tablets, Regimen A (C5-12): three film-coated Formulation C5-12 tablets, N = 172, read-out: Tmax, first value (geometric mean)): 5 h | AUC(0-t) ([4]; both sexes, human, blood, oral, Regimen B (reference regimen): two Triple Tablets + one Single Tablet morning, one Single Tablet evening, N = 171, read-out: AUCt, geometric mean): 1630 ng·h/mL | AUC(0-inf) ([4]; both sexes, human, blood, oral, Regimen B (reference regimen): two Triple Tablets + one Single Tablet morning, one Single Tablet evening, N = 171, read-out: AUC∞, geometric mean): 1760 ng·h/mL | Tmax ([4]; both sexes, human, blood, oral, Regimen B (reference regimen): two Triple Tablets + one Single Tablet morning, one Single Tablet evening, N = 171, read-out: Tmax, first value (geometric mean)): 5 h | Cmax, geometric mean ([4]; Regimen A (C5-12): three film-coated Formulation C5-12 tablets, N = 172): 124 ng/mL | Cmax, geometric mean [4, 10]: 131 ng/mL | t1/2 [4, 10]: 39.2 h | Exposures versus the reference regimen [5]: bioequivalent | Relative bioavailability, AUC24, point estimate [5]: 1.098 | Relative bioavailability, AUCt, point estimate [5]: 1.091 | Relative bioavailability, Cmax, point estimate [5]: 1.087 | Solubility [6]: low solubility
